Data from patent US20090143288A1, “Peptide-complement conjugates” (Roche Palo Alto LLC, priority 2007, published 2009).

Target: HR1 region of HIV-1 gp41 (immobilized biotinylated HR1 peptide Biotin-T-2324) (Human immunodeficiency virus type 1 group M subtype B, UniProt P04582, G556A)
Experiment: BIAcore surface plasmon resonance analysis of the binding to the HR1 region
Settings: SPR, BIAcore 3000, 25° C., HBS-P buffer, 1:1 Langmuir binding model

CC[C@H](C)[C@H](NC(=O)[C@H](CCC(N)=O)NC(=O)[C@H](C)NC(=O)[C@H](CCC(N)=O)NC(=O)[C@H](CCC(=O)O)NC(=O)[C@H](CC(C)C)NC(=O)[C@H](CC(C)C)NC(=O)[C@H](C)NC(=O)[C@@H](NC(=O)[C@@H](NC(=O)[C@H](CCCCN)NC(=O)[C@H](CCC(N)=O)NC(=O)[C@H](CCC(=O)O)NC(=O)[C@H](Cc1c[nH]c2ccccc12)NC(=O)[C@H](CCC(=O)O)NC(=O)[C@H](CCC(N)=O)NC(=O)[C@H](Cc1c[nH]c2ccccc12)NC(C)=O)[C@@H](C)CC)[C@@H](C)O)C(=O)N[C@@H](CCC(N)=O)C(=O)N[C@@H](CCC(N)=O)C(=O)N[C@@H](CCC(=O)O)C(=O)N[C@@H](CCCCN)C(=O)N[C@@H](CC(N)=O)C(=O)N[C@@H](CCC(=O)O)C(=O)N[C@@H](Cc1ccc(O)cc1)C(=O)N[C@@H](CCC(=O)O)C(=O)N[C@@H](CC(C)C)C(=O)N[C@@H](CCC(N)=O)C(=O)N[C@@H](CCCCN)C(=O)N[C@@H](CC(C)C)C(=O)N[C@@H](CC(=O)O)C(=O)N[C@@H](CCCCN)C(=O)N[C@@H](Cc1c[nH]c2ccccc12)C(=O)N[C@@H](C)C(=O)N[C@@H](CO)C(=O)N[C@@H](CC(C)C)C(=O)N[C@@H](Cc1c[nH]c2ccccc12)C(=O)N[C@@H](CCC(=O)O)C(=O)N[C@@H](Cc1c[nH]c2ccccc12)C(=O)N[C@@H](Cc1ccccc1)C(N)=O [Rob T-1249, WQEWEQKITALLEQAQIQQEKNEYELQKLDKWASLWEWF]
ka (association rate constant): 6.4 * 10^5 1/ms
kd (dissociation rate constant): 0.000845 s⁻¹
